This note sets out measurements from ChEMBL document CHEMBL1641527, “Design and synthesis of aryl ether and sulfone hydroxamic acids as potent histone deacetylase (HDAC) inhibitors” (Bioorg Med Chem Lett, 2011).

A short description of the assay: Inhibition of HDAC by [3H]acetate-radiolabelled peptide substrate assay with scintillation counting.

As usually defined, the IC50 is the concentration that gives 50% inhibition. A high value points to weaker potency.

Structures are written as SMILES.

Turning to `CC(/C=C/C(=O)NO)=C\COc1cccc(-c2ccccc2)c1`, the IC50 amounted to 41 nM. In the case of `CC(/C=C/C(=O)O)=C\C(C)S(=O)(=O)c1ccc(C)cc1C` (stereo not drawn) it was more than 1000 nM; in that of `CC(/C=C/C(=O)O)=C\C(C)Oc1cccc(-c2ccccc2)c1` (stereo not drawn), more than 1000 nM; in that of `CC(/C=C/C(=O)O)=C\C(C)Oc1cccc2c1CCCC2` (stereo not drawn), more than 50000 nM.

`CCCCCCOc1ccc(OC(C)/C=C(C)/C=C/C(=O)NO)cc1` (stereo not drawn) gave a concentration for half-maximal inhibition (IC50) of 1100 nM. In the case of `CC(/C=C/C(=O)O)=C\COc1ccc(C(C)C)cc1` it was more than 1000 nM; in that of `CC(/C=C/C(=O)O)=C\C(C)S(=O)(=O)c1ccc(F)cc1` (stereo not drawn), more than 1000 nM. Then `CC(/C=C/C(=O)NO)=C\C(C)S(=O)(=O)c1nc(C)cc(C)n1` (stereo not drawn), with more than 1000 nM; and `CC(/C=C/C(=O)O)=C\COc1cccc2c1CCCC2`, with more than 1000 nM; and `CC(/C=C/C(=O)O)=C\C(C)S(=O)(=O)c1ccc(C)c(C)c1` (stereo not drawn), with more than 1000 nM.

Compound `CC(/C=C/C(=O)O)=C\C(C)Oc1ccc(C(C)C)cc1` (stereo not drawn) yielded an IC50 of more than 50000 nM. In the case of `CC(/C=C/C(=O)NO)=C\C(C)S(=O)(=O)c1cn(C)cn1` (stereo not drawn) it was more than 1000 nM; in that of `COc1ccc(S(=O)(=O)C(C)/C=C(C)/C=C/C(=O)NO)cc1` (stereo not drawn), more than 1000 nM; in that of `COc1ccc(OC/C=C(C)/C=C/C(=O)O)cc1`, more than 1000 nM. In the case of `CC(/C=C/C(=O)NO)=C\COc1cccc(C(F)(F)F)c1` it was 18 nM; in that of `CCCCCCOc1ccc(OC(C)/C=C(C)/C=C/C(=O)O)cc1` (stereo not drawn), more than 1000 nM.

In turn, `CC(/C=C/C(=O)NO)=C\COc1ccc(Br)cc1Br` had a concentration for half-maximal inhibition (IC50) of 890 nM. Then `CC(/C=C/C(=O)O)=C\C(C)S(=O)(=O)c1ccc(Br)cc1` (stereo not drawn), with more than 1000 nM; and `CC(/C=C/C(=O)O)=C\C(C)Oc1cccc(Cc2ccccc2)c1` (stereo not drawn), with more than 50000 nM; and `COc1ccc2ccc(OC/C=C(C)/C=C/C(=O)NO)cc2c1`, with 20 nM. For the compound `CC(/C=C/C(=O)NO)=C\COc1cccc(Cl)c1`, inhibition was half-maximal at 188 nM (IC50). In the case of `CC(/C=C/C(=O)O)=C\COc1cccc(-c2ccccc2)c1` it was more than 1000 nM; in that of `CC(=O)Nc1ccc(S(=O)(=O)C(C)/C=C(C)/C=C/C(=O)NO)cc1` (stereo not drawn), more than 1000 nM. In the case of `CC(/C=C/C(=O)O)=C\C(C)Oc1cccc(C(F)(F)F)c1` (stereo not drawn) it was more than 50000 nM; in that of `CC(/C=C/C(=O)NO)=C\C(C)Oc1ccc(-c2ccc(Br)cc2)cc1` (stereo not drawn), 162 nM. Then `CC(/C=C/C(=O)NO)=C\[C@@H](C)C(=O)c1ccc(N(C)C)cc1` [TRICHOSTATIN], with 3 nM; and `CC(/C=C/C(=O)NO)=C\COc1cccc(Cc2ccccc2)c1`, with 1200 nM. `CC(/C=C/C(=O)NO)=C\C(C)S(=O)(=O)c1cnc2cc(C)ccc2c1` (stereo not drawn) came in with an IC50 of more than 1000 nM. `CC(/C=C/C(=O)O)=C\C(C)Oc1ccc(Br)cc1Br` (stereo not drawn) had a concentration for half-maximal inhibition (IC50) of more than 1000 nM.

`COc1ccc(OC/C=C(C)/C=C/C(=O)NO)cc1` had an IC50 of 68 nM.

The compound `CC(/C=C/C(=O)NO)=C\C(C)S(=O)(=O)c1ccc(Cl)c(Cl)c1` (stereo not drawn) showed an IC50 of more than 1000 nM. In the case of `CC(/C=C/C(=O)NO)=C\C(C)Oc1cccc(-c2ccccc2)c1` (stereo not drawn) it was 55 nM; in that of `CC(/C=C/C(=O)O)=C\C(C)S(=O)(=O)c1ccc(Cl)cc1` (stereo not drawn), more than 1000 nM. Then `COc1cccc(S(=O)(=O)C(C)/C=C(C)/C=C/C(=O)NO)c1` (stereo not drawn), with more than 1000 nM; and `CC(/C=C/C(=O)O)=C\C(C)Oc1cccc(Cl)c1` (stereo not drawn), with more than 1000 nM. Compound `CC(=O)c1ccc(OC(C)/C=C(C)/C=C/C(=O)NO)cc1` (stereo not drawn) displayed an IC50 of more than 50000 nM. In the case of `CC(/C=C/C(=O)NO)=C\C(C)S(=O)(=O)c1ccc(C)cc1` (stereo not drawn) it was more than 1000 nM; in that of `CC(/C=C/C(=O)NO)=C\C(C)S(=O)(=O)c1ccc(Br)cc1` (stereo not drawn), more than 1000 nM.
